Measurements taken from PubChem BioAssay AID2060884 (Molecular Pharmacology Branch, DTP, NCI, 2025).

Test system: NCI-H929 complex spheroids, viability % test/control
Test: Anticancer human tumor NCI-H929 cell line growth inhibition [RAS];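 note: compound exposure lasted seven days before viability was read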;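 for viability, T/C: 100% = DMSO vehicle control viability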
Conditions: for viability, T/C: stronger effect = lower value
Summary of the method: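 Agents were tested in combination matrices in half-log decrements from a top concentration at or near clinical Cmax (10 microM if undetermined). Targets were multi-cell spheroids of tumour lines plus HUVEC and MSC stromal cells.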

[1] = curve of first compound, second compound 0.000949 µM
[2] = curve of first compound, second compound 0.003 µM
[3] = curve of first compound, second compound 0.00949 µM
[4] = curve of first compound, second compound 0.03 µM
[5] = curve of first compound, second compound 0.0949 µM
[6] = curve of first compound, second compound 0.3 µM
[7] = second compound 0.000949 µM, first compound 0.0316 µM
[8] = second compound 0.000949 µM, first compound 0.1 µM
[9] = second compound 0.000949 µM, first compound 0.316 µM
[10] = second compound 0.000949 µM, first compound 1 µM
[11] = second compound 0.003 µM, first compound 0.0316 µM
[12] = second compound 0.003 µM, first compound 0.1 µM
[13] = second compound 0.003 µM, first compound 0.316 µM
[14] = second compound 0.003 µM, first compound 1 µM
[15] = second compound 0.00949 µM, first compound 0.0316 µM
[16] = second compound 0.00949 µM, first compound 0.1 µM
[17] = second compound 0.00949 µM, first compound 0.316 µM
[18] = second compound 0.00949 µM, first compound 1 µM
[19] = second compound 0.03 µM, first compound 0.0316 µM
[20] = second compound 0.03 µM, first compound 0.1 µM
[21] = second compound 0.03 µM, first compound 0.316 µM
[22] = second compound 0.03 µM, first compound 1 µM
[23] = second compound 0.0949 µM, first compound 0.0316 µM
[24] = second compound 0.0949 µM, first compound 0.1 µM
[25] = second compound 0.0949 µM, first compound 0.316 µM
[26] = second compound 0.0949 µM, first compound 1 µM
[27] = second compound 0.3 µM, first compound 0.0316 µM
[28] = second compound 0.3 µM, first compound 0.1 µM
[29] = second compound 0.3 µM, first compound 0.316 µM
[30] = second compound 0.3 µM, first compound 1 µM

`C=CC(=O)N1CCN(c2nc(OCC3CCCN3C)nc3c(F)c(-c4nc(N)cc(C)c4C(F)(F)F)c(Cl)cc23)C(C)C1` (stereo not drawn) + CCn1c(-c2cccnc2C(C)OC)c2c3cc(ccc31)N1CCOC(CC(NC(=O)C(C(C)C)N(C)C(=O)C3(F)CCN(C(=O)C#CC(C)(C)N(C)C)CC3)C(=O)N3CCCC(N3)C(=O)OCC(C)(C)C2)C1 was tested, and the IC50 [1] was > 1 µM, the IC50 [2] was > 1 µM and the IC50 [3] was > 1 µM. The IC50 [4] was > 1 µM, the IC50 [5] was > 1 µM and the IC50 [6] was > 1 µM. The viability, T/C (second compound 0.000949 µM, first compound 0.00316 µM) was 104%, the viability, T/C (second compound 0.000949 µM, first compound 0.01 µM) was 103% and the viability, T/C [7] was 103%. For the same compound, the viability, T/C [8] was 104%, the viability, T/C [9] was 102% and the viability, T/C [10] was 105%. It also gave a viability, T/C (second compound 0.003 µM, first compound 0.00316 µM) of 104%, a viability, T/C (second compound 0.003 µM, first compound 0.01 µM) of 105% and a viability, T/C [11] of 101%. The viability, T/C [12] was 102%, the viability, T/C [13] was 107% and the viability, T/C [14] was 104%. It also gave a viability, T/C (second compound 0.00949 µM, first compound 0.00316 µM) of 104%, a viability, T/C (second compound 0.00949 µM, first compound 0.01 µM) of 101% and a viability, T/C [15] of 106%. For the same compound, the viability, T/C [16] was 107%, the viability, T/C [17] was 106% and the viability, T/C [18] was 105%. The viability, T/C (second compound 0.03 µM, first compound 0.00316 µM) was 102%, the viability, T/C (second compound 0.03 µM, first compound 0.01 µM) was 99.7% and the viability, T/C [19] was 106%. The viability, T/C [20] was 105%, the viability, T/C [21] was 106% and the viability, T/C [22] was 107%. For the same compound, the viability, T/C (second compound 0.0949 µM, first compound 0.00316 µM) was 102%, the viability, T/C (second compound 0.0949 µM, first compound 0.01 µM) was 103% and the viability, T/C [23] was 106%. It also gave a viability, T/C [24] of 104%, a viability, T/C [25] of 107% and a viability, T/C [26] of 104%. It also gave a viability, T/C (second compound 0.3 µM, first compound 0.00316 µM) of 102%, a viability, T/C (second compound 0.3 µM, first compound 0.01 µM) of 104% and a viability, T/C [27] of 106%. For the same compound, the viability, T/C [28] was 107%, the viability, T/C [29] was 107% and the viability, T/C [30] was 103%.

`CC(=O)OC12COC1CC(O)C1(C)C(=O)C(O)C3=C(C)C(OC(=O)C(O)C(NC(=O)OC(C)(C)C)c4ccccc4)CC(O)(C(OC(=O)c4ccccc4)C21)C3(C)C` (stereo not drawn) was tested, and the viability, T/C (compound 0.0316 µM) was 1.05% [middle of 4 runs], the viability, T/C (compound 0.1 µM) was 1.29% [middle of 4 runs] and the viability, T/C (compound 0.316 µM) was 1.47% [middle of 4 runs]. The viability, T/C (compound 1 µM) was 1.41% [middle of 4 runs], the viability, T/C (compound 3.16 µM) was 1.6% [middle of 4 runs] and the viability, T/C (compound 10 µM) was 0.8% [middle of 4 runs]. The IC50 (curve of compound) was < 0.0316 µM.

Work on `CC1(C)CCC(Nc2ncc(C(F)(F)F)c(-c3c[nH]c4c(P(C)(C)=O)c(C#N)ccc34)n2)CN1` (stereo not drawn) + C=CC(=O)N1CCN(c2nc(OCC3CCCN3C)nc3c(F)c(-c4nc(N)cc(C)c4C(F)(F)F)c(Cl)cc23)C(C)C1 yielded an IC50 (curve of first compound, second compound 0.00316 µM) of 0.00568 µM, an IC50 (curve of first compound, second compound 0.01 µM) of 0.00625 µM and an IC50 (curve of first compound, second compound 0.0316 µM) of 0.00633 µM. The IC50 (curve of first compound, second compound 0.1 µM) was 0.00639 µM, the IC50 (curve of first compound, second compound 0.316 µM) was 0.0065 µM and the IC50 (curve of first compound, second compound 1 µM) was 0.00668 µM. For the same compound, the viability, T/C (second compound 0.00316 µM, first compound 0.000949 µM) was 128%, the viability, T/C (second compound 0.00316 µM, first compound 0.003 µM) was 92.7% and the viability, T/C (second compound 0.00316 µM, first compound 0.00949 µM) was 15.7%. The viability, T/C (second compound 0.00316 µM, first compound 0.03 µM) was 9.6%, the viability, T/C (second compound 0.00316 µM, first compound 0.0949 µM) was 8.73% and the viability, T/C (second compound 0.00316 µM, first compound 0.3 µM) was 5.5%. It also gave a viability, T/C (second compound 0.01 µM, first compound 0.000949 µM) of 125%, a viability, T/C (second compound 0.01 µM, first compound 0.003 µM) of 109% and a viability, T/C (second compound 0.01 µM, first compound 0.00949 µM) of 16.1%. It also gave a viability, T/C (second compound 0.01 µM, first compound 0.03 µM) of 12.3%, a viability, T/C (second compound 0.01 µM, first compound 0.0949 µM) of 9.77% and a viability, T/C (second compound 0.01 µM, first compound 0.3 µM) of 5.17%. For the same compound, the viability, T/C (second compound 0.0316 µM, first compound 0.000949 µM) was 125%, the viability, T/C (second compound 0.0316 µM, first compound 0.003 µM) was 111% and the viability, T/C (second compound 0.0316 µM, first compound 0.00949 µM) was 16.7%. It also gave a viability, T/C (second compound 0.0316 µM, first compound 0.03 µM) of 11.4%, a viability, T/C (second compound 0.0316 µM, first compound 0.0949 µM) of 7.81% and a viability, T/C (second compound 0.0316 µM, first compound 0.3 µM) of 5.16%. The viability, T/C (second compound 0.1 µM, first compound 0.000949 µM) was 123%, the viability, T/C (second compound 0.1 µM, first compound 0.003 µM) was 114% and the viability, T/C (second compound 0.1 µM, first compound 0.00949 µM) was 16.6%. It also gave a viability, T/C (second compound 0.1 µM, first compound 0.03 µM) of 11.9%, a viability, T/C (second compound 0.1 µM, first compound 0.0949 µM) of 7.35% and a viability, T/C (second compound 0.1 µM, first compound 0.3 µM) of 5.2%. The viability, T/C (second compound 0.316 µM, first compound 0.000949 µM) was 129%, the viability, T/C (second compound 0.316 µM, first compound 0.003 µM) was 114% and the viability, T/C (second compound 0.316 µM, first compound 0.00949 µM) was 18.5%. It also gave a viability, T/C (second compound 0.316 µM, first compound 0.03 µM) of 9.66%, a viability, T/C (second compound 0.316 µM, first compound 0.0949 µM) of 8.16% and a viability, T/C (second compound 0.316 µM, first compound 0.3 µM) of 5.67%. The viability, T/C (second compound 1 µM, first compound 0.000949 µM) was 132%, the viability, T/C (second compound 1 µM, first compound 0.003 µM) was 125% and the viability, T/C (second compound 1 µM, first compound 0.00949 µM) was 17%. It also gave a viability, T/C (second compound 1 µM, first compound 0.03 µM) of 13.4%, a viability, T/C (second compound 1 µM, first compound 0.0949 µM) of 9.36% and a viability, T/C (second compound 1 µM, first compound 0.3 µM) of 6.92%.

Compound `CC(Nc1ccc2c(c1)OCCn1cc(N3C(=O)OCC3C(F)F)nc1-2)C(N)=O` (stereo not drawn) + CCn1c(-c2cccnc2C(C)OC)c2c3cc(ccc31)N1CCOC(CC(NC(=O)C(C(C)C)N(C)C(=O)C3(F)CCN(C(=O)C#CC(C)(C)N(C)C)CC3)C(=O)N3CCCC(N3)C(=O)OCC(C)(C)C2)C1 has an IC50 [1] of 6.45 µM, an IC50 [2] of 6.54 µM and an IC50 [3] of 5.96 µM. For the same compound, the IC50 [4] was 5.96 µM, the IC50 [5] was 5.44 µM and the IC50 [6] was 4.4 µM. The viability, T/C [7] was 103%, the viability, T/C [8] was 94.3% and the viability, T/C [9] was 96.2%. For the same compound, the viability, T/C [10] was 87.2%, the viability, T/C (second compound 0.000949 µM, first compound 3.16 µM) was 83.5% and the viability, T/C (second compound 0.000949 µM, first compound 10 µM) was 30.4%. The viability, T/C [11] was 99.5%, the viability, T/C [12] was 96.1% and the viability, T/C [13] was 94.5%. It also gave a viability, T/C [14] of 90.5%, a viability, T/C (second compound 0.003 µM, first compound 3.16 µM) of 79.8% and a viability, T/C (second compound 0.003 µM, first compound 10 µM) of 32.7%. The viability, T/C [15] was 98.7%, the viability, T/C [16] was 97.1% and the viability, T/C [17] was 96.5%. The viability, T/C [18] was 92%, the viability, T/C (second compound 0.00949 µM, first compound 3.16 µM) was 85.3% and the viability, T/C (second compound 0.00949 µM, first compound 10 µM) was 21.6%. For the same compound, the viability, T/C [19] was 94.1%, the viability, T/C [20] was 96.6% and the viability, T/C [21] was 96.5%. The viability, T/C [22] was 91.8%, the viability, T/C (second compound 0.03 µM, first compound 3.16 µM) was 83.1% and the viability, T/C (second compound 0.03 µM, first compound 10 µM) was 22.9%. The viability, T/C [23] was 96.9%, the viability, T/C [24] was 98.1% and the viability, T/C [25] was 94.5%. The viability, T/C [26] was 91.1%, the viability, T/C (second compound 0.0949 µM, first compound 3.16 µM) was 80.2% and the viability, T/C (second compound 0.0949 µM, first compound 10 µM) was 17%. It also gave a viability, T/C [27] of 101%, a viability, T/C [28] of 101% and a viability, T/C [29] of 97.2%. For the same compound, the viability, T/C [30] was 86%, the viability, T/C (second compound 0.3 µM, first compound 3.16 µM) was 65.6% and the viability, T/C (second compound 0.3 µM, first compound 10 µM) was 13.2%.
